Results taken from ChEMBL document CHEMBL2384989, “Abietane diterpenoids and a sesquiterpene pyridine alkaloid from Euonymus lutchuensis” (J Nat Prod, 2013).
Converted amounts (≈) assume the structure as drawn.

What was measured:
Type in all cases: functional, cell-based
HCT-116 = experiment: Cytotoxicity against human HCT116 cells after 48 hrs by MTT assay; settings: HCT-116, 48 h
HL-60 = experiment: Cytotoxicity against human HL60 cells after 48 hrs by MTT assay; settings: HL-60, 48 h
P388 = experiment: Cytotoxicity against mouse P388 cells after 48 hrs by MTT assay; settings: P388, 48 h

CC(CO)c1ccc2c(c1)CC[C@H]1C(C)(C)C(=O)CC[C@]21C (stereo partly specified)
IC50 (HCT-116): > 5 µg/mL
IC50 (HL-60): > 5 µg/mL
IC50 (P388): > 5 µg/mL

CC(CO)c1cc2c(cc1O)[C@@]1(C)CCC(=O)C(C)(C)[C@@H]1CC2 (stereo partly specified)
IC50 (HCT-116; read-out: IC50): < 5 µg/mL
IC50 (HL-60; read-out: IC50): < 5 µg/mL
IC50 (P388; read-out: IC50): < 5 µg/mL

CC(O)c1ccc2c(c1)CC[C@H]1C(C)(C)C(=O)CC[C@]21C (stereo partly specified)
IC50 (HCT-116): > 5 µg/mL
IC50 (HL-60): > 5 µg/mL
IC50 (P388): > 5 µg/mL

CC(CO)c1ccc2c(c1)CC[C@H]1C(C)(C)[C@@H](O)C(=O)C[C@]21C (stereo partly specified)
IC50 (HCT-116): > 5 µg/mL
IC50 (HL-60): > 5 µg/mL
IC50 (P388): > 5 µg/mL

CC(C)c1cc2c(cc1O)C[C@@]13CCCC(C)(C)[C@@H]1C[C@@H]2O3
IC50 (HCT-116): > 5 µg/mL
IC50 (HL-60): > 5 µg/mL
IC50 (P388): > 5 µg/mL

CC(=O)OC[C@]12[C@H](OC(C)=O)[C@H](OC(C)=O)[C@@H]3[C@@H](O)[C@@]14OC3(C)COC(=O)c1cccnc1[C@H](C)[C@@H](C)C(=O)O[C@H]([C@H](O)[C@@H]2OC(=O)c1ccccc1)C4(C)O (stereo partly specified) [EUOLUCHUMINE]
IC50 (HCT-116): > 5 µg/mL
IC50 (HL-60): > 5 µg/mL
IC50 (P388): > 5 µg/mL

CC(=O)O[C@H]1C(=O)[C@@]2(C)[C@H]([C@H](OC(=O)c3ccccc3)[C@]3(O)C[C@H](OC(=O)[C@H](O)[C@@H](NC(=O)c4ccccc4)c4ccccc4)C(C)=C1C3(C)C)[C@]1(OC(C)=O)CO[C@@H]1C[C@@H]2O [PACLITAXEL]
IC50 (HCT-116; read-out: IC50): 0.045 µg/mL (≈ 0.0527 µM)
IC50 (HL-60; read-out: IC50): 0.005 µg/mL (≈ 0.00586 µM)
IC50 (P388; read-out: IC50): 0.2 µg/mL (≈ 0.234 µM)
